What was measured:
Type in all cases: cell-based
SF-295 = test: Cytotoxicity against human SF295 cells by MTT assay
HL-60 = test: Cytotoxicity against human HL60 cells by MTT assay
HCT-8 = test: Cytotoxicity against human HCT8 cells by MTT assay
[1] = Cytotoxicity against human MDA-MB435 cells by MTT assay; settings: mda-mb-435

Row | Structure (SMILES) | Activity (SF-295) [µg/mL] | Activity (HL-60) [µg/mL] | Activity (HCT-8) [µg/mL] | Activity [1] [µg/mL]
1 | O[C@H]1/C2=C\C/C=C/C=C\C=C/CCN3CC45CCCCCCCCCCCCN(CC1C4CC23)C5 (stereo partly specified) [MADANGAMINE F] | 19.8 | 16.7 | > 25 | 16.2
2 | OC1\C=C/C=C/C=C/CC[C@H]2CN3CCCCCCCCCCCC[C@H]4C[C@H](CN(C1)C4)[C@@H]2CC3 (stereo partly specified) | 8.7 | 6.9 | > 25 | 3.1
3 | OC1/C=C\C=C/CCCCCC[C@H]2CN3CC/C=C\CCCCCCC4C[C@@H](CN(C1)C4)[C@H]2CC3 (stereo partly specified) [ARENOSCLERIN D] | 5.9 | 2.1 | 6.2 | 1.2
4 | C1=C\CCCCC[C@H]2CN3CC/C=C\CCCCCC[C@@H]4C[C@@H](CN(CC/C=C\C/1)C4)[C@H]2CC3 [HALICLONACYCLAMINE F] | 4.5 | 2.2 | 8.6 | 1
